Reference: PMC12128024, “Copper(II) Cyclopeptides with High ROS-Mediated Cytotoxicity” (Bioconjugate Chemistry, 2025)
*1 amine or outer side, *2 acyl side, *3 side chain or, on linkers, in order; H or OH if unused. Where a SMILES comes first, the peptide text is derived from it. [ ]: non-standard residue; d: D form. X1 = O=C(c1ccc(-c2ccc(N[*:1])cn2)nc1)[*:2]; βAla = NCCC(=O)O

Legend:
[1] = test system: NCI/ADR-RES (doxorubicin resistant ovarian carcinoma); conditions: 48 h
Description: (§1) IC50 is the concentration at which 50% growth inhibition is obtained and E max represents the efficacy of the compound at its maximum concentration, expressed as the maximum % cell inhibition achieved by the compound (see Section S6 and Figure S8 of the Supporting Information).
(§2) General method: cell lines and grown conditions
(§3) Non-small lung carcinoma NCI-H460, human colon carcinoma HCT-116, human glioma SF-268
(§4) and doxorubicin-resistance human mamma carcinoma NCI/ADR-RES cell lines, as well as
(§5) Eagle’s Minimal Essential Medium (EMEM) and RPMI1640 were purchased from the American Tissue Culture Collection (ATCC). Frozen cells were thawed in a 75 cm2 cell culture flask in RPMI
(§6) supplemented with 2 mM L-glutamine and 10% FBS and maintained at 37 °C in a 5% CO2
(§7) The inhibition of cell proliferation induced by the samples [1/Cu(II), 1 eq. cyclopeptide 1/3 eq. of
(§8) Cu(II); 2/Cu(II), 1 eq. cyclopeptide 2/5 eq. of Cu(II)]‚ was carried out by using MTT method for
(§9) HCT-116, NCI/ADR-RES and NCI-H460 cell lines. SF-268 cell growth inhibition induced by the
(§10) samples was assessed using a system based on crystal violet cell staining and subsequent
(§11) acetylation. Cells were seeded in a 96-well microplate (5000 cells/well for HCT-116, 10000
(§12) cells/well for SF-268 and 15000 cells/well for NCI/ADR-RES and NCI-H460 cell lines) in 100 μl
(§13) of growth medium and maintained at 37 °C for 24 h.
(§14) Then growth medium was replaced by fresh medium containing different concentrations of the
(§15) samples to be assayed and maintained at 37 °C in a 5% CO2 atmosphere for 48 h. After this
(§16) time, 10 μL MTT (5 mg/ml in PBS) were added to each well and maintained for 4 h at 37 °C in a
(§17) 5% CO2 atmosphere. Then 100 μL of 10% SDS in 0.01 M HCl were added to each well an
(§18) incubated for 12-14 h under the same experimental conditions. Absorbance due to formation
(§19) was detected in a Tecan infinity M1000 Pro reader using a wavelength of 595 nm. All assays
were performed with triplicate points.
b) Crystal violet cell staining
(§20) The samples dissolved in water were added, maintaining the same proportion of water in each
(§21) well (10%). After 72 h (at 37°C and in an atmosphere of 5% CO 2/95% air), the cells were fixed to
(§22) the plate with 10 μL of 11% glutaraldehyde solution, kept under agitation at room temperature,
(§23) for 15 minutes. Once fixed, the medium was removed and the cells were washed 3-4 times with
(§24) distilled water, followed by staining of the cells with 100 μL of a 0.1% crystal violet solution. This
(§25) solution was prepared by diluting 0.1g of crystal violet in 100 mL of buffer composed of 200 mM
(§26) phosphoric acid, 200 mM formic acid and 200 mM 2-(N-morpholino)-ethane sulphonic acid
(§27) (MES) at pH 6. The plate was kept shaking at room temperature for 15 minutes. The dye was
(§28) removed, washed 3-4 times with distilled water and dried. 100 μL of 10% acetic acid was then
(§29) added and kept under agitation for 15 minutes, at room temperature, so that the staining was
(§30) homogeneous in all wells. Finally, an absorbance reading of the plates was performed at a
(§31) wavelength of 595 nm (Tecan M1000 Infinite Pro). The assay was performed with triplicate points.
(§32) Data were expressed as the growth inhibition percentage calculated in basis on the equation: %
(§33) inhibition= 100 – [(AO × 100) / AT]. Where AT is the measured absorbance in wells containing
(§34) compounds and AO is the absorbance measured in blank wells (cells with medium and vehicle).
(§35) The inhibitory potency of compounds was calculated by constructing concentration-% growth
(§36) inhibition curves, and extrapolating IC50 values (concentration of compound that inhibits cells

NCI/ADR-RES cells = assay: Intracellular ROS generation (ROS Assay Stain 1X); assay type: cell-based; conditions: 100 μM compound with 125 μM H2O2, 1-5 h and 24 h, 1/Cu(II) equimolar
Description: Measurement of intracellular ROS levels in NCI/ADR-RES cells treated with Cu(II) ions, cyclopeptide 1, or the 1/Cu(II) metallopeptide system confirmed a time-dependent increase in the level of ROS generation. In short, after 24 h of incubation, cells were stained with ROS Assay Stain 1× and treated with 100 μM Cu(II) (CuCl2·2H2O), cyclopeptide 1, or 1/Cu(II), along with 125 μM H2O2, and fluorescence was recorded (λex = 495/λem = 520 nm) every hour for the first 5 h and again at 24 h. The experiment with the metallopeptide system was conducted by using equimolar amounts of cyclopeptide 1 and Cu(II) to prevent an excess of free copper in the medium. […] The cytotoxicity of the metallopeptide systems appears to be closely linked to their ability to enhance intracellular oxidative stress via increased ROS production, likely driven by Cu(II) accumulation within the cells.
9.2. […]
NCI/ADR-RES cells were seeded in a 96 well plate (Thermo Scientific 165305) at a density of 2,5 x 10^5 cells/ml. […] The fluorescence was measured in a microplate reader every hour for the first 5 hours, and again at 24 hours after the addition of the compounds (λex= 495 nm / λem= 520 nm). […]
Figure S15. […] Fluorescence (λex= 495 nm / λem= 520 nm) was recorded every hour for the first 5 hours, and again at 24 hours after the addition of the compounds to assess intracellular ROS generation. […]

[2] = Fluorescence titration of cyclopeptides with Cu(II) ions (DynaFit fit); assay type: binding; conditions: 2 μM cyclopeptide, 1 mM phosphate buffer, 10 mM NaCl, pH 6.5; 1: 1:2 model (cyclopeptide:metal); 2: simplified model with 1:1 and 2:1 species; read-out: global dissociation constant K D
Description: While the 2,2′-bipyridine ligand is known to be weakly emissive and for all practical purposes considered nonfluorescent, , the 5′-amido-[2,2′-bipyridine]-5-carboxamide unit in the βAlaBpy building block is highly emissive, displaying an intense emission band at c.a. 410 nm with a quantum yield of 0.37. Furthermore, the fluorescence of the βAlaBpy units is quenched upon coordination to a wide range of divalent transition metal ions. We exploited this property to monitor the coordinative properties of cyclopeptides 1 and 2 in the presence of labile Cu(II) ions in aqueous media. Thus, we measured the emission spectra of 2 μM solutions of the cyclopeptides 1 and 2 in 1 mM phosphate buffer and 10 mM NaCl, pH 6.5, upon excitation at 308 nm in the presence of increasing concentrations of Cu(II) ions. […] Therefore, the affinity of the first part of the titrations cannot be determined with this experiment as it is too strong. […]
5.2. Fluorescence titration experiments
Luminescence experiments were made with a Varian Cary Eclipse Fluorescence spectrophotometer coupled to a Cary Single Cell Peltier accessory (Agilent Technologies) temperature controller. […]
emission spectrum was recorded (λex= 308 nm; λem= 410 nm) after each addition. […]

[3] = test system: HCT-116 (colon carcinoma); conditions: 48 h
Description: as §1, §2, §3, §4, §5, §6, §7, §8, §9, §10, §11, §12, §13, §14, §15, §16, §17, §18, §19
were performed with triplicate points.
b) Crystal violet cell staining
as §20, §21, §22, §23, §24, §25, §26, §27, §28, §29, §30, §31, §32, §33, §34, §35, §36

With `N=C(N)NCCC[C@@H]1NC(=O)c2ccc(nc2)-c2ccc(cn2)NC(=O)CCNC(=O)[C@H](CCCNC(=N)N)NC(=O)[C@H](CCCNC(=N)N)NC(=O)[C@H](CCCNC(=N)N)NC(=O)c2ccc(nc2)-c2ccc(cn2)NC(=O)CCNC(=O)[C@H](CCCNC(=N)N)NC(=O)[C@H](CCCNC(=N)N)NC1=O` [compound 1, cyclo-(βAlaBpy-Arg3)2] (cyclo([X1]RRR[βAla][X1]RRR[βAla])) the “E max (maximum % cell inhibition)” value [1] was 10 ± 2%, the IC50 [1] was greater than 100 µM and the “intracellular ROS levels (fluorescence)” value (NCI/ADR-RES cells) was “also promotes ROS generation, albeit to a lesser extent”. For the same compound, the Kd [2] was 0.39 ± 0.19 µM, the “E max (maximum % cell inhibition)” value [3] was 27 ± 1% and the IC50 [3] was greater than 100 µM.
